Structures are written as SMILES. Read-outs that look alike come from different tables or passages of the source. Where only a bound is given, the exact number is not on record here.

This experiment deals with NL-RLuc virus. As to the kind of experiment: Inhibition of HIV replication (NL-RLuc virus, luciferase readout, MT-2 cells). It counts as cell-based. To be noted: Human immunodeficiency virus 1, MT2, 120 h. The text has this:
Inhibition of HIV Replication:
A recombinant NL-RLuc proviral clone was constructed in which a section of the nef gene from NL4-3 was replaced with the Renilla Luciferase gene. This virus is fully infectious and can undergo multiple cycles of replication in cell culture. In addition, the luciferous reporter provides a simple and easy method for quantitating the extent of virus growth and consequently, the antiviral activity of test compounds. The plasmid pNLRLuc contains the proviral NL-Rluc DNA cloned into pUC18 at the PvuII site. The NL-RLuc virus was prepared by transfection of 293T cells with the plasmid pNLRLuc. Transfections were performed using the LipofectAMINE PLUS kit from Invitrogen (Carlsbad, Calif.) according to the manufacturer and the virus generated was titered in MT-2 cells. For susceptibility analyses, the titrated virus was used to infect MT-2 cells in the presence of compound, and after 5 days of incubation, cells were processed and quantitated for virus growth by the amount of expressed luciferase. Assay media was RPMI 1640 supplemented with 10% heat inactivated fetal bovine serum (FBS), 100 units/ml penicillin G/100 units/ml streptomycin, 10 mM HEPES buffer pH 7.55 and 2 mM L-glutamine. The results from at least 2 experiments were used to calculate the EC50 values. Luciferase was quantitated using the Dual Luciferase kit from Promega (Madison, Wis.). Susceptibility of viruses to compounds was determined by incubation in the presence of serial dilutions of the compound. The 50% effective concentration (EC50) was calculated by using the exponential form of the median effect equation where (Fa)=1/[1+(ED50/drug conc.)^m] (Johnson V A, Byington R T. Infectivity Assay. In Techniques in HIV Research. ed. Aldovini A, Walker B D. 71-76. New York: Stockton Press. 1990). Activity equal to A refers to a compound having an EC50≤100 nM, while B and C denote compounds having an EC50 between 100 nM and luM (B) or >1 uM (C).

Turning to `Cc1cc2nc3c(Cl)n2c(c1[C@H](OC(C)(C)C)C(=O)O)N1CCC(C)(CC1)OCCOC[C@H](C)Oc1cc(F)c(F)cc1-c1cccc-3c1` [Example 7, (2S)-2-(tert-Butoxy)-2-[(22S)-8-chloro-17,18-difluoro-4,22,28-trimethyl-21,24,27-trioxa-1,7,34-triazahexacyclo[26.2.2.1^6,^9.1^1^0,^1^4.0^2,^7.0^1^5,^2^0]tetratriaconta-2,4,6(34),8,10(33),11,13,15(20),16,18-decaen-3-yl]acetic Acid], the EC50 (read-out: Activity) is < 0.1 µM.
Consider `Cc1c([C@H](OC(C)(C)C)C(=O)O)c2n3c(Cl)c(nc3c1Cn1nccn1)-c1cccc(c1)-c1cc(F)c(F)cc1O[C@@H](C)COCCOC1(C)CCN2CC1` [Example 13, (2S)-2-(tert-butoxy)-2-[(22S)-8-chloro-17,18-difluoro-4,22,28-trimethyl-5-(2H-1,2,3-triazol-2-ylmethyl)-21,24,27-trioxa-1,7,34-triazahexacyclo[26.2.2.1^6,^9.1^1^0,^1^4.0^2,^7.0^1^5,^2^0]tetratriaconta-2,4,6(34),8,10(33),11,13,15(20),16,18-decaen-3-yl]acetic Acid], for which, where the note is “read-out: Activity”, the EC50 was < 0.1 µM.
Regarding `Cc1c([C@H](OC(C)(C)C)C(=O)O)c2n3cc(nc3c1C#N)-c1cccc(c1)-c1cc(F)c(F)cc1O[C@@H](C)COCCOC1(C)CCN2CC1` [Example 17, (2S)-2-(tert-Butoxy)-2-[(22S)-5-cyano-17,18-difluoro-4,22,28-trimethyl-21,24,27-trioxa-1,7,34-triazahexacyclo[26.2.2.1^6,^9.1^1^0,^1^4.0^2,^7.0^1^5,^2^0]tetratriaconta-2,4,6(34),8,10(33),11,13,15(20),16,18-decaen3-yl]acetic Acid], for the setting “read-out: Activity”, the EC50 is < 0.1 µM.
With `Cc1cc(F)c2c(c1)O[C@@H](C)COCCOC1(C)CCN(CC1)c1c([C@H](OC(C)(C)C)C(=O)O)c(C)c(C)c3nc(c(Cl)n13)-c1cccc-2c1` [Example 21, (2S)-2-(tert-Butoxy)-2-((6S,E)-23-chloro-46-fluoro-14,27,28,44,6-pentamethyl-5,8,11-trioxa-2(5,2)-imidazo[1,2-a]pyridina-1(1,4)-piperidina-3(1,3),4(1,2)-dibenzenacycloundecaphane-26-yl)acetic acid], the EC50 runs as follows: (read-out: Activity) < 0.1 µM; (read-out: EC50 μM) 0.002 µM.
As to `Cc1c([C@@H](OC(C)(C)C)C(=O)O)c2n3cc(nc3c1C)-c1cccc(c1)-c1cc(F)c(F)cc1O[C@@H](C)COCCOC1(C)CCN2CC1` [Example 3, (2R)-2-(tert-butoxy)-2-((6S,Z)-44,45-difluoro-14,27,6-trimethyl-5,8,11-trioxa-2(5,2)-imidazo[1,2-a]pyridina-1(1,4)-piperidina-3(1,3),4(1,2)-dibenzenacycloundecaphane-26-yl)acetic Acid], the EC50 by setting is: (read-out: Activity) 0.1 to 1 µM; (read-out: EC50 μM) 0.305 µM.
For `Cc1c([C@H](OC(C)(C)C)C(=O)O)c2n3cc(nc3c1CO)-c1cccc(c1)-c1cc(F)c(F)cc1O[C@@H](C)COCCOC1(C)CCN2CC1` [Example 6, (2S)-2-(tert-Butoxy)-2-[(22S)-17,18-difluoro-5-(hydroxymethyl)-4,22,28-trimethyl-21,24,27-trioxa-1,7,34-triazahexacyclo[26.2.2.1^6,^9.1^1^0,^1^4.0^2,^7.0^1^5,^2^0]tetratriaconta-2,4,6(34),8,10(33),11,13,15(20),16,18-decaen-3-yl]acetic Acid], in that order: < 0.1 µM and 0.002 µM.
Regarding `Cc1ccc2c(c1)O[C@@H](C)COCCOC1(C)CCN(CC1)c1c([C@H](OC(C)(C)C)C(=O)O)c(C)cc3nc(cn13)-c1cccc-2c1` [Example 22, (2S)-2-(tert-Butoxy)-2-[(22S)-4,18,22,28-tetramethyl-21,24,27-trioxa-1,7,34-triazahexacyclo[26.2.2.1^6,^9.1^1^0,^1^4.0^2,^7.0^1^5,^2^0]tetratriaconta-2,4,6(34),8,10(33),11,13,15(20),16,18-decaen-3-yl]acetic Acid], the EC50 (read-out: Activity) was < 0.1 µM.
As for `Cc1c([C@H](O)C(=O)O)c2n3cc(nc3c1C)-c1cccc(c1)-c1cc(F)c(F)cc1O[C@@H](C)COCCOC1(C)CCN2CC1` [Example 5, (2S)-2-[(22S)-17,18-Difluoro-4,5,22,28-tetramethyl-21,24,27-trioxa-1,7,34-triazahexacyclo[26.2.2.1^6,^9.1^1^0,^1^4.0^2,^7.0^1^5,^2^0]tetratriaconta-2,4,6(34),8,10(33),11,13,15(20),16,18-decaen-3-yl]-2-hydroxyacetic Acid], the EC50 (read-out: Activity) lay within 0.1 to 1 µM and the EC50 (read-out: EC50 μM) was determined as 0.283 µM.
Regarding `Cc1ccc2c(c1)-c1cccc(c1)-c1cn3c(c([C@H](OC(C)(C)C)C(=O)O)c(C)c(C)c3n1)N1CCC(C)(CC1)OCCOC[C@H](C)O2` [Example 26, (2S)-2-(tert-Butoxy)-2-[(22S)-4,5,17,22,28-pentamethyl-21,24,27-trioxa-1,7,34-triazahexacyclo[26.2.2.1^6,^9.1^1^0,^1^4.0^2,^7.0^1^5,^2^0]tetratriaconta-2,4,6(34),8,10(33),11,13,15(20),16,18-decaen-3-yl]acetic Acid], under “read-out: Activity”, the EC50 is < 0.1 µM.
The same measure, in the same setting: with `Cc1c([C@H](OC(C)(C)C)C(=O)O)c2n3c(Cl)c(nc3c1C)-c1cccc(c1)-c1cc(F)c(F)cc1O[C@@H](C)COCCOC1(C)CCN2CC1` [Example 8, (2S)-2-(tert-Butoxy)-2-[(22S)-8-chloro-17,18-difluoro-4,5,22,28-tetramethyl-21,24,27-trioxa-1,7,34-triazahexacyclo[26.2.2.1^6,^9.1^1^0,^1^4.0^2,^7.0^1^5,^2^0]tetratriaconta-2,4,6(34),8,10(33),11,13,15(20),16,18-decaen-3-yl]acetic Acid] the figure was < 0.1 µM.
Regarding `Cc1c([C@H](OC(C)(C)C)C(=O)O)c2n3c(Cl)c(nc3c1Cn1ccnn1)-c1cccc(c1)-c1cc(F)c(F)cc1O[C@@H](C)COCCOC1(C)CCN2CC1` [Example 12, (2S)-2-(tert-Butoxy)-2-[(22S)-8-chloro-17,18-difluoro-4,22,28-trimethyl-5-(1H-1,2,3-triazol-1-ylmethyl)-21,24,27-trioxa-1,7,34-triazahexacyclo[26.2.2.1^6,^9.1^1^0,^1^4.0^2,^7.0^1^5,^2^0]tetratriaconta-2,4,6(34),8,10(33),11,13,15(20),16,18-decaen-3-yl]acetic Acid], the EC50 reads like this: (read-out: Activity) < 0.1 µM; (read-out: EC50 μM) 0.012 µM.
On to `Cc1ccc2c(c1)O[C@@H](C)COCCOC1(C)CCN(CC1)c1c([C@H](OC(C)(C)C)C(=O)O)c(C)c(C)c3nc(c(Cl)n13)-c1cccc-2c1` [Example 24, (2S)-2-(tert-Butoxy)-2-((6S,E)-23-chloro-14,27,28,44,6-pentamethyl-5,8,11-trioxa-2(5,2)-imidazo[1,2-a]pyridina-1(1,4)-piperidina-3(1,3),4(1,2)-dibenzenacycloundecaphane-26-yl)acetic Acid], for which the EC50 (read-out: Activity) was < 0.1 µM.
Turning to `Cc1c([C@H](OC(C)(C)C)C(=O)O)c2n3cc(nc3c1C)-c1cccc(c1)-c1cc(F)c(F)cc1O[C@@H](C)COCCOC1(C)CCN2CC1` [Example 2, (2S)-2-(tert-Butoxy)-2-[(22S)-17,18-difluoro-4,5,22,28-tetramethyl-21,24,27-trioxa-1,7,34-triazahexacyclo[26.2.2.1^6,^9.1^1^0,^1^4.0^2,^7.0^1^5,^2^0]tetratriaconta-2,4,6(34),8,10(33),11,13,15(20),16,18-decaen-3-yl]acetic Acid], the EC50 (read-out: Activity) was < 0.1 µM.
Turning to `Cc1ccc2c(c1)O[C@@H](C)COCCOC1(C)CCN(CC1)c1c([C@H](OC(C)(C)C)C(=O)O)c(C)c(C)c3nc(cn13)-c1cccc-2c1` [Example 23, (2S)-2-(tert-Butoxy)-2-((6S,Z)-14,27,28,44,6-pentamethyl-5,8,11-trioxa-2(5,2)-imidazo[1,2-a]pyridina-1(1,4)-piperidina-3(1,3),4(1,2)-dibenzenacycloundecaphane-26-yl)acetic Acid], the EC50 (read-out: Activity) is < 0.1 µM.
Same read-out and setting: then `Cc1c([C@H](OC(C)(C)C)C(=O)O)c2n3cc(nc3c1C)-c1cccc(c1)-c1cc(F)ccc1O[C@@H](C)COCCOC1(C)CCN2CC1` [Example 28, (2S)-2-(tert-Butoxy)-2-((6S,Z)-45-fluoro-14,27,28,6-tetramethyl-5,8,11-trioxa-2(5,2)-imidazo[1,2-a]pyridina-1(1,4)-piperidina-3(1,3),4(1,2)-dibenzenacycloundecaphane-26-yl)acetic Acid], with < 0.1 µM; and `COCc1c(C)c([C@H](OC(C)(C)C)C(=O)O)c2n3c(Cl)c(nc13)-c1cccc(c1)-c1cc(F)c(F)cc1O[C@@H](C)COCCOC1(C)CCN2CC1` [Example 11, (2S)-2-(tert-Butoxy)-2-[(22S)-8-chloro-17,18-difluoro-5-(methoxymethyl)-4,22,28-trimethyl-21,24,27-trioxa-1,7,34-triazahexacyclo[26.2.2.1^6,^9.1^1^0,^1^4.0^2,^7.0^1^5,^2^0]tetratriaconta-2,4,6(34),8,10(33),11,13,15(20),16,18-decaen-3-yl]acetic Acid], with < 0.1 µM.

Values taken from patent US10138253B2, “Imidazopyridine macrocycles as inhibitors of human immunodeficiency virus replication” (priority 2015, dated 2018).
